What all share (assay): biochemical
Common to all, as to set-up: KINOMEscan scanMAX active site-directed competition binding assay, percent of control, 468 kinases
What all share (conditions): competition binding, percent of control

The target in one experiment is T1, DRAK2 (Homo sapiens, UniProt O94768).
T1 construct: gene STK17B
An outline of the steps:
(§1)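 KINOMEscan active site-directed competition binding assay against 468 human kinases with 100 μM S-carvone. Binding expressed as % of control, with 35% of control as the inhibition threshold.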

In another experiment the target is LRRK2 (Homo sapiens, UniProt Q5S007). An outline of the steps: as §1
Another experiment has as its target PRKCQ (Homo sapiens, UniProt Q04759). A digest of the protocol: as §1
The target of the next experiment is CIT (Homo sapiens, UniProt O14578). A digest of the protocol:
as §1

The next experiment concerns the target T2, DMPK2 (Homo sapiens, UniProt Q6DT37).
T2 construct: gene CDC42BPG
A digest of the protocol: as §1

In the next experiment the target is T3, ERK1 (Homo sapiens, UniProt P27361).
T3 construct: gene MAPK3
An outline of the steps:
as §1

The next experiment concerns the target T4, MRCKB (Homo sapiens, UniProt Q9Y5S2).
T4 construct: gene CDC42BPB
A digest of the protocol: as §1

Experiment [1] concerns the target EGFR(L747-S752del, P753S) (Homo sapiens, UniProt P00533, DEL747-752/P753S). A digest of the protocol: as §1
In experiment [2] the target is T5, JAK1(JH1domain-catalytic) (Homo sapiens, UniProt P23458).
T5 construct: JH1domain-catalytic
An outline of the steps:
as §1

For another experiment, the target named is ACVRL1 (Homo sapiens, UniProt P37023). A digest of the protocol: as §1
In a further experiment the target is PRKCH (Homo sapiens, UniProt P24723). An outline of the steps:
as §1

The target in the next experiment is CSNK1G2 (Homo sapiens, UniProt P78368). A digest of the protocol:
as §1

Another experiment has as its target WEE1 (Homo sapiens, UniProt P30291). An outline of the steps:
as §1

For another experiment, the target named is T6, PYK2 (Homo sapiens, UniProt Q14289).
T6 construct: gene PTK2B
An outline of the steps: as §1

Another experiment has as its target PLK1 (Homo sapiens, UniProt P53350). A digest of the protocol:
as §1

Experiment [3] addresses T7, RSK2(Kin.Dom.1-N-terminal) (Homo sapiens, UniProt P51812).
T7 construct: gene RPS6KA3; Kin.Dom.1-N-terminal
An outline of the steps: as §1

The target of the next experiment is T8, PAK7 (Homo sapiens, UniProt Q9P286).
T8 construct: gene PAK5
A digest of the protocol: as §1

A further experiment has as its target CDKL2 (Homo sapiens, UniProt Q92772). A digest of the protocol: as §1
The next experiment addresses GRK4 (Homo sapiens, UniProt P32298). A digest of the protocol:
as §1

For another experiment, the target named is PKN2 (Homo sapiens, UniProt Q16513). A digest of the protocol:
as §1

The next experiment addresses ERBB4 (Homo sapiens, UniProt Q15303). A digest of the protocol: as §1

Structures are written as SMILES.

Drawing on article PMC10174618, “Monoterpenoid aryl hydrocarbon receptor allosteric antagonists protect against ultraviolet skin damage in female mice” (Nature Communications, 2023), this text covers remaining binding for one molecule.

T3 sequence (P27361 whole entry): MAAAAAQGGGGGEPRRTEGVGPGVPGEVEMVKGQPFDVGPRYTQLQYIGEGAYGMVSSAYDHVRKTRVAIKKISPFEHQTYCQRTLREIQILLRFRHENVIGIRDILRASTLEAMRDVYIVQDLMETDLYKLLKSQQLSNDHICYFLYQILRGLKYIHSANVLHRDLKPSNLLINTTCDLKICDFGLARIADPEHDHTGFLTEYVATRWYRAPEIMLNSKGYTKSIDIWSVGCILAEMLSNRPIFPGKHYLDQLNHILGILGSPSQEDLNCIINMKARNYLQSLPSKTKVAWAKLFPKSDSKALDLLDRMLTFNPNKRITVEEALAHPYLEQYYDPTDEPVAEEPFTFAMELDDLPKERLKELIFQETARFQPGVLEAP
CDKL2, sequence (Q92772 whole entry): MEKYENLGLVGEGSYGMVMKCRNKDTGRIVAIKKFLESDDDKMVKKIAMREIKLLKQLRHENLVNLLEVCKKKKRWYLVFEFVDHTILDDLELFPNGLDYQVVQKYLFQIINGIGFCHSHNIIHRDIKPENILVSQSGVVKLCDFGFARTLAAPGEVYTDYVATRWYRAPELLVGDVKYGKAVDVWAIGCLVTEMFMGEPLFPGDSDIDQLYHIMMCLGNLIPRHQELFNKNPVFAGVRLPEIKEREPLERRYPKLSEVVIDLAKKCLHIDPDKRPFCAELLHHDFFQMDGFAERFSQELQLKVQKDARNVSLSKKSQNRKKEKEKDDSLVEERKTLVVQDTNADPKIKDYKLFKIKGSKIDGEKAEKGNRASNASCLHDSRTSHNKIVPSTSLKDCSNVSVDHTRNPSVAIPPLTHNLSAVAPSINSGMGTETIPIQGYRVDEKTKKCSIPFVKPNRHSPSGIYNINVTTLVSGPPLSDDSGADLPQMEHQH
T5 sequence (P23458 whole entry): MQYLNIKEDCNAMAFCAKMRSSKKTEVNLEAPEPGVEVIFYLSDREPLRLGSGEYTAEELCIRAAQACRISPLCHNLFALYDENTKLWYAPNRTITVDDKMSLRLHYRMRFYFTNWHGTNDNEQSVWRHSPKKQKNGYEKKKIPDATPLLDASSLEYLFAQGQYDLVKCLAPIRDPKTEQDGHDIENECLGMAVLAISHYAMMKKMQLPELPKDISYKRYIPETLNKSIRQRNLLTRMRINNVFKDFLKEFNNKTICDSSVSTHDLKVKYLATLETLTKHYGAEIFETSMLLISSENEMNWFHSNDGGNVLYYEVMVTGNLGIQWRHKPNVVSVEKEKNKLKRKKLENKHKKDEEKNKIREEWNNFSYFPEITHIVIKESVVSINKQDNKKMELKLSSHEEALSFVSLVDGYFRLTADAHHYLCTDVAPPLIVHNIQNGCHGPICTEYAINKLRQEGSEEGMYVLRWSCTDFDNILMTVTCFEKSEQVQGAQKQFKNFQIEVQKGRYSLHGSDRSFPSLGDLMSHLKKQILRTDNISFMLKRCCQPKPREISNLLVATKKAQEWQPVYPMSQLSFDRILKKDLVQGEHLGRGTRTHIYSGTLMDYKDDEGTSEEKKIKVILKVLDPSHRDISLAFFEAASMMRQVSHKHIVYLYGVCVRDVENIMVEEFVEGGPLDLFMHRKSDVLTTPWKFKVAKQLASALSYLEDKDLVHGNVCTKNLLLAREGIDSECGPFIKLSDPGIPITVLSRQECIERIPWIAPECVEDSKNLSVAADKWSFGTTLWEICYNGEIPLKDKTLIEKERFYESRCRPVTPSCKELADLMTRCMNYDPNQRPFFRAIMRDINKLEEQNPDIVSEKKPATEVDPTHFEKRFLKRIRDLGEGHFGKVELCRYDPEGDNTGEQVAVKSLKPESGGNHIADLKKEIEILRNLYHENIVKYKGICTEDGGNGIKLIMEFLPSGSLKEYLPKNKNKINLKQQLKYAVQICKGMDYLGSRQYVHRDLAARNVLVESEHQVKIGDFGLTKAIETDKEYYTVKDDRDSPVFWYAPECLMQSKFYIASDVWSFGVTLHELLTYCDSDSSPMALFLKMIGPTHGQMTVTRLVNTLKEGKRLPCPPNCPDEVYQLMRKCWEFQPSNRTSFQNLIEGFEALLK
GRK4, sequence (P32298 whole entry): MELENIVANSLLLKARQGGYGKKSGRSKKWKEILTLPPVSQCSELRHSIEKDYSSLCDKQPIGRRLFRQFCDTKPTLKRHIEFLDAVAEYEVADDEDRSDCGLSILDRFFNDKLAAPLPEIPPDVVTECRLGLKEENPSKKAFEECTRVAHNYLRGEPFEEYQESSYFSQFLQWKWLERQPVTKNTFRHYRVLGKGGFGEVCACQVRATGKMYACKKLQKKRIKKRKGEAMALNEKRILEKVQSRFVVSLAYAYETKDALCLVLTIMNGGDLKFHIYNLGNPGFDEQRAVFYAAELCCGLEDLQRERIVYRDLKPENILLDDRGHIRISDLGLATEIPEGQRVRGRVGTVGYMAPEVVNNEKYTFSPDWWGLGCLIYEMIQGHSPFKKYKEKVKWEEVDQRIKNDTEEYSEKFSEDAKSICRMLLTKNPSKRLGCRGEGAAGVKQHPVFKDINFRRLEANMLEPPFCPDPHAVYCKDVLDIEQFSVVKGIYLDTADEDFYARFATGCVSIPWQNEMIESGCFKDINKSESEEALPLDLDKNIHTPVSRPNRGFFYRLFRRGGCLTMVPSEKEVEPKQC
CSNK1G2, sequence (P78368 whole entry): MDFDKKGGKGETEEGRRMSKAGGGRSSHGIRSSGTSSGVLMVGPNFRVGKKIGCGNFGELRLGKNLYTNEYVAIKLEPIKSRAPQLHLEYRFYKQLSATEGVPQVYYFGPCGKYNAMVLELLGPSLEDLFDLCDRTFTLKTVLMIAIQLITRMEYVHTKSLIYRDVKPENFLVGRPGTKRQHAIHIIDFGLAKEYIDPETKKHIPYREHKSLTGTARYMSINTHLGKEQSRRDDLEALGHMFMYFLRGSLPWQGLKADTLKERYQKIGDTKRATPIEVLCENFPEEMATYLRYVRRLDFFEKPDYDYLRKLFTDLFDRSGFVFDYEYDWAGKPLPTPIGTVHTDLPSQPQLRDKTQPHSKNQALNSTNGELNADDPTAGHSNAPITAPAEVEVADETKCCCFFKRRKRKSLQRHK
PLK1, sequence (P53350 whole entry): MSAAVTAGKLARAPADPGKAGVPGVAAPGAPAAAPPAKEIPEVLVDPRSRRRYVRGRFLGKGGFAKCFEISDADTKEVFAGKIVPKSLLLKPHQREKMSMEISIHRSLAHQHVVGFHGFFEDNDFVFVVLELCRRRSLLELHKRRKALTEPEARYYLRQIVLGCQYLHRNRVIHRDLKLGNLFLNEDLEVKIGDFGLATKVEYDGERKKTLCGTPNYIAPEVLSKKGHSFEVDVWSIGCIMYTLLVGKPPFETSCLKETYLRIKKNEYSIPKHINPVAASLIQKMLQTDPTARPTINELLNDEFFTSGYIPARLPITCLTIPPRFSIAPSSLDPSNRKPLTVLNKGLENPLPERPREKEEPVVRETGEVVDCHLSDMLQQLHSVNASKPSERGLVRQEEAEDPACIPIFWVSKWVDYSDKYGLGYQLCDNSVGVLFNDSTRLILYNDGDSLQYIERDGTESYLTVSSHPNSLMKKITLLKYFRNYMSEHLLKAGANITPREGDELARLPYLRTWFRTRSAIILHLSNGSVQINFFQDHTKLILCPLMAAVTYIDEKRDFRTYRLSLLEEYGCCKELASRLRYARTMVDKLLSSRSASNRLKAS
T1 sequence (O94768 whole entry): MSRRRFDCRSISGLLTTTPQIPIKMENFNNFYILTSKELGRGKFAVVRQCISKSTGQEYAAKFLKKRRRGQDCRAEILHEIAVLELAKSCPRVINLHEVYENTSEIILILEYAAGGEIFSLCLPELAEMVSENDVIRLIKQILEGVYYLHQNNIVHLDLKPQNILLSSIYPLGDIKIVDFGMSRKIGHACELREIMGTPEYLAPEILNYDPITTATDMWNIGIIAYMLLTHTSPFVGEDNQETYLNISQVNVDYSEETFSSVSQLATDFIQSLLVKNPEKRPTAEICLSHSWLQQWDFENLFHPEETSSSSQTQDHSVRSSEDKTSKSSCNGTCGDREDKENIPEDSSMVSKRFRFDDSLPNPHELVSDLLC
T8 sequence (Q9P286 whole entry): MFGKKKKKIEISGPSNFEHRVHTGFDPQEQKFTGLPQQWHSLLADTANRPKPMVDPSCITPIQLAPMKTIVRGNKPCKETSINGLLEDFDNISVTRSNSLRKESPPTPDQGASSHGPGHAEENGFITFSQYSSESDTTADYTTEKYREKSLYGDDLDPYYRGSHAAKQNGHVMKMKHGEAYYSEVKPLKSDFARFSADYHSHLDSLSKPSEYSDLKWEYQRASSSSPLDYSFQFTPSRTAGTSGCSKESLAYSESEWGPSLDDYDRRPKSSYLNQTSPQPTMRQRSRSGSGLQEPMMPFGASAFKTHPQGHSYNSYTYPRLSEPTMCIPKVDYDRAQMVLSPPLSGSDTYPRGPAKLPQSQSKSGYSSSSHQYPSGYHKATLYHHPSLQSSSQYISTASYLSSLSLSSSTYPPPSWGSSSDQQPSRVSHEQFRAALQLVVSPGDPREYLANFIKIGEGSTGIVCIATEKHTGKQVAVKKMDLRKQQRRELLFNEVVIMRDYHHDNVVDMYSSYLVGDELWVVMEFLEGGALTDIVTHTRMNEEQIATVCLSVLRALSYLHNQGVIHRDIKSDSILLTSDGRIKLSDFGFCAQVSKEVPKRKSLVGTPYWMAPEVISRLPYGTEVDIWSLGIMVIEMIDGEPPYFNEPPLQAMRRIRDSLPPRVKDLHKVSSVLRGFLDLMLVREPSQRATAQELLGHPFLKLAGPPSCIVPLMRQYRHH

Consider `C=C(C)[C@H]1CC=C(C)C(=O)C1` [S-carvone], for which the remaining binding at 100 µM at DRAK2 was 98%; on LRRK2 it was 100%; at PRKCQ, 75%; at CIT it was 81%; on DMPK2 it was 83%; on ERK1 it was 75%. Also, the remaining binding at 100 µM on MRCKB turned out to be 91%; in [1], 68%; in [2], 100%; on ACVRL1, 88%; at PRKCH, 73%; on CSNK1G2 it was 87%. In addition, the remaining binding at 100 µM at WEE1 turned out to be 81%; at PYK2 it was 80%; on PLK1, 68%; in experiment [3], 89%; at PAK7 it was 100%; at CDKL2, 85%. Further, the remaining binding at 100 µM at GRK4 amounted to 66%; on PKN2, 83%; at ERBB4, 81%.
